Measurements reported in patent US20050148534A1, “Small molecule compositions and methods for increasing drug efficiency using compositions thereof” (priority 2003, published 2005).
Like-named read-outs stand apart in the source and are kept apart here.

Legend:
[1] = tested on: HT-29 colorectal carcinoma; test: Cytotoxicity assay (monolayer), HT-29; assay type: cell-based; conditions: Homo sapiens
Description: (§1) Statistical Assoc., 81, 991-999, 1986.
(§2) Monolayer assays with tumor cell lines (MCF-7 breast carcinoma and HT-29 colorectal carcinoma from ATCC) were carried out in triplicate in 96-well plates with RPMI1640 medium containing 5% fetal bovine serum, 100 U/ml penicillin and 100 μg/ml streptomycin. Normal human foreskin fibroblasts (HFF #CC-2509) were from Cambrex and were cultured in FGM-2 medium. Exponentially growing cells (5,000 MCF-7 or HT-29; 1,500 HFF) were plated in 100 μl medium and incubated overnight (5% CO2, 37° C.). Compounds (20 pM to 20 μM final concentration, 6-8 doses) and vehicle (DMSO) controls were added and the incubation was continued for an additional 72 hours. Final cell density was determined by incubating cultures with 25 μl AlamarBlue reagent (BioSource, Camarillo, Calif.) for 4 hours, followed by determination of fluorescence at excitation of 544 nm and emission of 590 nm with a SpectroMax Gemini EM fluorescence plate reader (Molecular Devices, Sunnyvale, Calif.). EC50 values were generated from dose-response curves by a 4-parameter method using Softmax PRO software. Mean EC50s (±SD) represent the average of all tests carried out for all lots of a given compound. […] Statistical Assoc., 81, 991-999 (1986).

Topoisomerase II = target: T1, Topoisomerase II (Homo sapiens, UniProt P11388); test: Topoisomerase II assay; assay type: biochemical; conditions: doxorubicin and its conjugates; percent activity of Doxorubicin
T1 construct: purchased TopoGEN Inc. (Columbus, Ohio) 1009-1
T1 sequence (P11388 whole entry): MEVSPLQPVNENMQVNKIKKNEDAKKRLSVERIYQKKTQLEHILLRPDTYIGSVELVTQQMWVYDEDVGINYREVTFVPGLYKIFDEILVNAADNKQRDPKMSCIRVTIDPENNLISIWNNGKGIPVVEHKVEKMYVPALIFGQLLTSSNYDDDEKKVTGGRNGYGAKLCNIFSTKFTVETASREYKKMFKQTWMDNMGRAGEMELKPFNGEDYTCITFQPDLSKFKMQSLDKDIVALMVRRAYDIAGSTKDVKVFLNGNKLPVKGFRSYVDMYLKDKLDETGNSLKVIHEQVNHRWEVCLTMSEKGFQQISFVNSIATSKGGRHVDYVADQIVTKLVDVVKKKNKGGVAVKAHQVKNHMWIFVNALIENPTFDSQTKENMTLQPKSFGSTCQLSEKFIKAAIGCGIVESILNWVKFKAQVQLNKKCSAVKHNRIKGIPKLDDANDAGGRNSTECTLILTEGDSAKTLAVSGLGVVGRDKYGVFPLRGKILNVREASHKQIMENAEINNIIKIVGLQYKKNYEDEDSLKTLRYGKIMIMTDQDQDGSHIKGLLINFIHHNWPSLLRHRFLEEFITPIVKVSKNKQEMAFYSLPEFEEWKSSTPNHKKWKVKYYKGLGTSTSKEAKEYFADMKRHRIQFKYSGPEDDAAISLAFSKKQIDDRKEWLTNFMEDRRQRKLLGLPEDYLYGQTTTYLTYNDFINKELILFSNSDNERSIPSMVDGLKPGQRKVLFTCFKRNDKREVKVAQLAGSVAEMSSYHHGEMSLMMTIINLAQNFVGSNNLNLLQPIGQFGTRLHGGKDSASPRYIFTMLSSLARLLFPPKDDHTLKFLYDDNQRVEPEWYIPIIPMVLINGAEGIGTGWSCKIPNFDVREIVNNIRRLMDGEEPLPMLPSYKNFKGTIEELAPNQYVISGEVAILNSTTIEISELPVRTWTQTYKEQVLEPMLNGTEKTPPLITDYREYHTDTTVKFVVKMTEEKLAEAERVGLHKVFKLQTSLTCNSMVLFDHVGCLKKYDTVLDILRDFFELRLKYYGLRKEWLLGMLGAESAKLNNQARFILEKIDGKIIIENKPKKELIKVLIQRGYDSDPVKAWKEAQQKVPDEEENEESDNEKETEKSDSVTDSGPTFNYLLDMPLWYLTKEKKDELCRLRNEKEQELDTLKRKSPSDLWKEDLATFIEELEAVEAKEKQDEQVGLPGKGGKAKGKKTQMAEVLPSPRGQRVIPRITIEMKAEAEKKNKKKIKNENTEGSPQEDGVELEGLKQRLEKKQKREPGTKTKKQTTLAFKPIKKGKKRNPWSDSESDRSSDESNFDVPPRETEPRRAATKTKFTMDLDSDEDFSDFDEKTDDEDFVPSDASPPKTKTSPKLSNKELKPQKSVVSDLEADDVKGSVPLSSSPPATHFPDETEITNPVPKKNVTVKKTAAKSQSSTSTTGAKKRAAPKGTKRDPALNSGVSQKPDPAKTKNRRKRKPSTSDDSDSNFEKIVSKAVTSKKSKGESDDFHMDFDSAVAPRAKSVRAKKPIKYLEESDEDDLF
Description: In certain embodiments, activity of doxorubicin conjugates was assayed by monitoring alteration in the ability of Topoisomerase II, by electrophoresis, to catalyze the formation of relaxed conformation DNA from a super-coiled plasmid.
Specifically the kit was used to assay whether Doxorubicin conjugates altered the ability of Topoisomerase II to catalyze the formation of relaxed conformation DNA from a super-coiled plasmid. Doxorubicin conjugates were compared directly to Doxorubicin at 10, 3, 1, 0.3, 0.1 and 0.03 micromolar concentrations. The quantity of relaxed conformation DNA was quantified from an agarose gel on which is it is separated from the super-coiled DNA by standard electrophoresis. […] The results are presented in terms of percent activity of Doxorubicin.

MCF-7 breast carcinoma [2] = test: Cytotoxicity assay (monolayer), MCF-7; assay type: cell-based; conditions: Homo sapiens, MCF7
Description: as §1, §2

[3] = target: T2, Human thymidine kinase 1 (TK1) (Homo sapiens, UniProt P04183); test: Thymidine kinase coupled (kinetic) ATP depletion assay; assay type: biochemical; conditions: initial velocity relative to thymidine; 100 μM conjugate
T2 construct: His tag (from pET28b(+)) (N); made in house; host or cells: E. coli BL21-codon plus
T2 sequence (P04183 1-234): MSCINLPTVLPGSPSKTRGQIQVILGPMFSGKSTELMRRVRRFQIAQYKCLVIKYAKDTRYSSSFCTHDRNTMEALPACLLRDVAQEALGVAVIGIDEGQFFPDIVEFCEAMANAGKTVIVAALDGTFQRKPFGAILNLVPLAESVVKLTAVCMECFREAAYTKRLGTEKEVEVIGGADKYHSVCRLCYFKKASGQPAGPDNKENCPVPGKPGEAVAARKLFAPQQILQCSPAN
Description: Thymidine kinase, viral thymidine kinase, TK-1 deoxycytidine kinase, and deoxyguanosine kinase activities are determined by subjecting a first end of a linker used in synthesizing linker-substrate constructs to a first test. The first test may involve observing ADP formation, an obligatory co-product of phospho group transfer from ATP which is catalyzed by the kinase to the C5′ hydroxyl group or its equivalent in the nucleoside or nucleoside analog. Formation of ADP is followed by a coupled enzyme assay well known in the art. ADP, formed from kinase phosphorylation, is used by pyruvate kinase to generate pyruvate from phosphoenolpyruvate which in turn is converted to lactate by lactate dehydrogenase. The lactate results in the consumption of NADH which is followed spectrophotometrically. The rate of nucleoside phosphorylation is then directly related to the rate of decrease in the observed NADH signal.
TK1 was amplified using PCR with forward primer 5′-[…]-3′ and reverse primer 5′-[…]-3′. The PCR product was digested with Nde I and Hind III. An N-terminal His-tagged TK1 construct, TK1/pET28b(+), was generated by subcloning TK1 into the Nde I and Hind III sites of prokaryotic expression vector pET28b (+) (Novagen, San Diego, Calif.). TK1 was expressed from TK1/pET28b(+) using E. coli strain BL21-codon plus (Stratagene, San Diego, Calif.) and purified by Ni column chromatography.
A coupled (kinetic) ATP depletion assay was developed to measure thymidine kinase activity. The reaction contained 100 mM Tris HCl, pH 7.5, 20 mM MgCl2, 100 mM KCl, 0.4 mM PEP, 0.2 mM NADH, Pyruvate Kinase (0.7 units)/Lactate Dehydrogenase (1.0 unit) (Sigma #PO294), 2.5-10 μg Thymidine Kinase, 100 μM thymidine or thymidine-drug conjugate in a volume of 75 μl. ATP (5 mM in 25 μl H2O) was added to initiate the reaction and the velocity of ATP depletion was monitored at 340 nm continuously for 15 minutes.

[4] = tested on: Normal human foreskin fibroblasts (HFF); test: Cytotoxicity assay (monolayer), HFF; assay type: cell-based; conditions: Fibroblast
Description: as §1, §2

HUVEC = test: Cytotoxicity assay (monolayer), HUVEC; assay type: cell-based; conditions: Homo sapiens, read-out: HUVEC (EC50 Ave) ML
HT29 = test: Cytotoxicity assay, HT29 SSA (SSA not explained); assay type: cell-based; conditions: Homo sapiens, HT-29; read-out: HT29 (EC50 Ave) SSA
[5] = tested on: HT-29 colorectal carcinoma; test: Cytotoxicity assay (soft agar), HT-29; conditions: Homo sapiens
MCF-7 breast carcinoma [6] = test: Cytotoxicity assay (soft agar), MCF-7; conditions: Homo sapiens
MCF7 = test: Cytotoxicity assay, MCF7 SSA (SSA not explained); assay type: cell-based; conditions: Homo sapiens
tubulin = test: Fluorescence-based microtubule polymerization assay (MPA); assay type: biochemical; conditions: mean percentage of paclitaxel or vinblastine activity; 0.75-10 micromolar
In short: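 Tubulin polymerization was followed by fluorescence (ex 360/em 405 nm) in a commercial kit with 1 mg/ml BSA added to every assay, glycerol being omitted for paclitaxel conjugates. Parent drugs and conjugates were tested at 0.75, 1.5, 3 and 10 micromolar final. Curves from the linear range of the dose responses were compared.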

[7] = tested on: breast carcinoma, colon carcinoma and leukemia; test: Cytotoxicity of drug-thymidine conjugates (Example 22); assay type: cell-based
[8] = Serum stability in RPMI1640 medium containing 10% fetal bovine serum; assay type: in vitro ADME
Description: The stability of conjugates was measured in RPMI1640 cell culture medium containing 10% fetal bovine serum. The serum-containing medium was pre-warmed at 37° C. for 3 min prior to addition of test articles. Test articles, prepared in DMSO as 5 mM stocks, were added to the cell culture media to a final concentration of […]. Aliquots ([…]) were withdrawn in triplicate at 0, 4, 8, 24 and 72 hours and combined with the same volume of ice-cold acetonitrile to terminate the reaction. The mixture was centrifuged at 2,000×g for 10 minutes. One part of the supernatant was mixed with four parts of deionized water to bring down the percentage of organic solvent. The diluted samples were then assayed by LC/MS for the test article. The natural log of the percent remaining was plotted versus time. A linear fit was used to determine the rate constant. The fit was truncated after the percent of remaining test article was less than 10%. The elimination half-lives associated with the disappearance of test articles were determined to compare their relative stability. The assays were carried out by Absorption Systems (Exton, Pa.).

[9] = monolayer, 72 hours, AlamarBlue, read-out: HT29 (EC50 Ave) ML
[10] = monolayer, 72 hours, AlamarBlue, read-out: MCF7 (EC50 Ave) ML
[11] = monolayer, 72 hours, AlamarBlue, read-out: HFF (EC50 Ave) ML
[12] = HT-29, read-out: HT29 (EC50 Ave) SA
[13] = MCF7, read-out: MCF7 (EC50 Ave) SA

Row | Compound | EC50 [1, 9] [nM] | Ave. MPA Act (doxorubicin) (Topoisomerase II) | EC50 (MCF-7 breast carcinoma [2]; [10]) [nM] | Ave. TK1 Kinase Act. [3] | EC50 [4, 11] [nM] | EC50 (HUVEC) [nM] | EC50 (HT29) [nM] | EC50 [5, 12] [nM] | EC50 (MCF-7 breast carcinoma [6]; [13]) [nM] | EC50 (MCF7) [nM] | Ave. MPA Act (tubulin) | other results
1 | COc1cccc2c1C(=O)c1c(O)c3c(c(O)c1C2=O)C[C@@](O)(C(=O)CO)C[C@@H]3O[C@H]1C[C@H](N)[C@H](O)[C@H](C)O1 [Doxorubicin] | 100 to 1000 | C (C>100) | < 100 | A (A<20) | < 100 | < 100 | – | – | – | – | – | –
2 | COc1cccc2c1C(=O)c1c(O)c3c(c(O)c1C2=O)C[C@@](O)(C(=O)CO)C[C@@H]3OC1CC(NCCCN2C(=O)CC(SCCC(=O)NCCCCCCn3c(=O)c(C)cn([C@H]4CC(O)[C@@H](CO)O4)c3=O)C2=O)C(O)C(C)O1 (stereo partly shown) [DOX-3′ALK-MALa(17)-N3-THY] | – | A (A<60) | > 1000 | A (A<20) | > 1000 | > 1000 | – | – | – | – | – | –
3 | CC[C@]1(O)CC2CN(CCc3c([nH]c4ccccc34)[C@@](C(=O)OC)(c3cc4c(cc3OC)N(C)[C@H]3C(O)(C(=O)NCCOCCOCCOCCN)[C@H](O)[C@]5(CC)C=CCN6CCC43[C@@H]65)C2)C1 (stereo partly shown) [VBL-3Am-PEG(11)-NH2, deacetylvinblastine-3-(amido-PEG-amine)] | 100 to 1000 | – | 100 to 1000 | – | < 100 | < 100 | < 100 | < 100 | < 100 | < 100 | B (B=60-100) | –
4 | CC[C@]1(O)C[C@@H]2CN(CCc3c([nH]c4ccccc34)[C@@](C(=O)OC)(c3cc4c(cc3OC)N(C)[C@H]3[C@@](O)(C(=O)OC)[C@H](OC(C)=O)[C@]5(CC)C=CCN6CC[C@]43[C@@H]65)C2)C1 [Vinblastine] | < 100 | – | < 100 | A (A<20) | < 100 | – | < 100 | < 100 | < 100 | < 100 | C (C>100) | EC50 [7]: 1 to 2 nM
5 | CC(=O)O[C@H]1C(=O)C2(C)[C@@H](OC(=O)NCCCCCCn3c(=O)c(C)cn([C@H]4CC(O)[C@@H](CO)O4)c3=O)CC3OC[C@]3(OC(C)=O)[C@H]2[C@H](OC(=O)c2ccccc2)[C@]2(O)C[C@H](OC(=O)[C@H](O)[C@@H](NC(=O)c3ccccc3)c3ccccc3)C(C)=C1C2(C)C (stereo partly shown) [PXL-7Ca-ALK(6)-N3-THY] | 100 to 1000 | – | < 100 | A (A<20) | 100 to 1000 | 100 to 1000 | – | 100 to 1000 | < 100 | – | B (B=60-100) | EC50 ([1]; mean ± SD, read-out: HT-29 Monolayer EC50): 258 ± 129 nM; EC50 (MCF-7 breast carcinoma [2]; mean ± SD, read-out: MCF-7 Monolayer EC50): 120 ± 73 nM; Relative Percent Remaining at 0 hr ([8]; 37° C., medium with 10% fetal bovine serum, 0 hr): 100%; Relative Percent Remaining at 4 hr ([8]; 37° C., medium with 10% fetal bovine serum, 4 hr): 84%; Relative Percent Remaining at 8 hr ([8]; 37° C., medium with 10% fetal bovine serum, 8 hr): 90%; Relative Percent Remaining at 24 hr ([8]; 37° C., medium with 10% fetal bovine serum, 24 hr): 80%; Relative Percent Remaining at 72 hr ([8]; 37° C., medium with 10% fetal bovine serum, 72 hr): 38%; half-life ([8]; bovine, serum): 55 h; EC50 ([5]; HT-29, read-out: HT-29 Soft Agar EC50): 120 ± 4 nM; EC50 ([4]; mean ± SD, read-out: HFF Monolayer EC50): 457 ± 310 nM; EC50 (MCF-7 breast carcinoma [6]; MCF7, read-out: MCF-7 Soft Agar EC50): 40 ± 41 nM
